Key:
Type in all cases: cell-based, human
[1] = tested on: A549 lung cancer cell; test: MTT anti-proliferative assay, A549; details: for IC50: MTT, 48 h
Description: (§1) The anti-proliferation activities of the synthesized analogs were assessed by an in vitro MTT assay conducted on thirteen human cell lines. Their cytotoxic activities were evaluated by measuring the inhibition of net cell growth. […]
(§2) 1.6. Cell lines and cell culture
(§3) MTT was purchased from Sigma-Aldrich Co. (St. Louis, MO, USA). The PI and Annexin V-FITC apoptosis detection kit were purchased from Invitrogen (Eugene, OR, USA). All human cell lines were used in this study. […]
(§4) cell, MCF-7 breast cancer cell, MCF-10A normal breast cell, Raji B lymphoblastoid cell and diffuse large B-cell lymphoma SU-DHL-10 cell were initially purchased from American Type Culture Collection (ATCC, Manassas, Virginia). media, DMEM, and FBS were provided from Gibco Company.
(§5) 1.7. Cell growth inhibition assay (MTT assay)
(§6) The experiment was carried out according to the method of reference. Briefly, cells were plated in 96-well plates at a den- […]
(§7) the anti-proliferative activities were determined by MTT assay. […]
(§8) (Becton-Dickinson, Franklin Lakes, NJ). […]

[2] = tested on: AGS gastric cancer cell; test: MTT anti-proliferative assay, AGS; details: for IC50: MTT, 48 h
Description: as §1, §2, §3, §4, §5, §6, §7, §8

[3] = tested on: BEL-7402 liver cancer cell; test: MTT anti-proliferative assay, BEL-7402; details: for IC50: MTT, 48 h
Description: as §1, §2, §3, §4, §5, §6, §7, §8

[4] = tested on: HCT116 colectal cancer cell; test: MTT anti-proliferative assay, HCT116; details: for IC50: MTT, 48 h, read-out: IC50 HCT-116
Description: as §1, §2, §3, §4, §5, §6, §7, §8

[5] = tested on: HeLa cervical cancer cell; test: MTT anti-proliferative assay, HeLa; details: for IC50: MTT, 48 h
Description: as §1, §2, §3, §4, §5, §6, §7, §8

[6] = tested on: HepG2 hepatoma cell; test: MTT anti-proliferative assay, HepG2; details: for IC50: MTT, 48 h, read-out: IC50 HepG-2
Description: as §1, §2, §3, §4, §5, §6, §7, §8

[7] = tested on: L-02 normal liver cell; test: MTT assay, L-02 normal cells; details: 48 h
Description: as §1, §2, §3, §4, §5, §6, §7, §8

[8] = tested on: MGC-803 late stage differentiation gastric cancer cell; test: MTT anti-proliferative assay, MGC-803; details: for IC50: MTT, 48 h
Description: as §1, §2, §3, §4, §5, §6, §7, §8

[9] = tested on: MCF-7 breast cancer cell; test: MTT anti-proliferative assay, MCF-7; details: for IC50: MTT, 48 h
Description: as §1, §2, §3, §4, §5, §6, §7, §8

[10] = tested on: MCF-10A normal breast cell; test: MTT assay, MCF-10A normal cells; details: 48 h
Description: as §1, §2, §3, §4, §5, §6, §7, §8

[11] = tested on: Raji B lymphoblastoid cell; test: MTT anti-proliferative assay, Raji; details: for IC50: MTT, 48 h, read-out: IC50 Raji
Description: as §1, §2, §3, §4, §5, §6, §7, §8

[12] = tested on: SGC-7901 early differentiation gastric cancer cell; test: MTT anti-proliferative assay, SGC-7901; details: for IC50: MTT, 48 h
Description: as §1, §2, §3, §4, §5, §6, §7, §8

[13] = tested on: diffuse large B-cell lymphoma SU-DHL-10 cell; test: MTT anti-proliferative assay, SU-DHL-10; details: for IC50: MTT, 48 h, read-out: IC50 SU-DHL-10
Description: as §1, §2, §3, §4, §5, §6, §7, §8

Row | SMILES | IC50 [1] [µM] | IC50 [2] [µM] | IC50 [3] [µM] | IC50 [4] [µM] | IC50 [5] [µM] | IC50 [6] [µM] | IC50 [7] [µM] | IC50 [8] [µM] | IC50 [9] [µM] | IC50 [10] [µM] | IC50 [11] [µM] | IC50 [12] [µM] | IC50 [13] [µM] | SI (selectivity index), IC50 (L-02)/IC50 (AGS) [2] | SI (selectivity index), IC50 (L-02)/IC50 (HCT-116) [4] | SI (selectivity index), IC50 (L-02)/IC50 (Raji) [11] | other results
1 | N#C/C(=C\c1ccccc1)c1ccc(OC(F)(F)F)cc1 [Compound 1a2a] | > 100 | > 100 | > 100 | > 100 | > 100 | > 100 | > 100 | > 100 | > 100 | > 100 | > 100 | > 100 | > 100 | – | – | – | –
2 | N#C/C(=C\c1ccc(F)cc1)c1ccc(OC(F)(F)F)cc1 [Compound 1a2b] | > 100 | 13.2 ± 3.3 | 15 ± 2.7 | 23.5 ± 4.6 | – | > 100 | > 100 | 37.4 ± 5.8 | > 100 | > 100 | 49 ± 7.4 | > 100 | 38.8 ± 3.7 | – | – | – | –
3 | N#C/C(=C\c1ccc(Cl)cc1)c1ccc(OC(F)(F)F)cc1 [Compound 1a2c] | 65.8 ± 8.9 | 18.6 ± 3 | > 100 | 20.2 ± 1.7 | 72.3 ± 2.4 | 20.7 ± 1.4 | > 100 | 35.2 ± 2.8 | 55.2 ± 2.8 | > 100 | 55.1 ± 3.2 | 56.4 ± 9.7 | > 100 | > 5.3 | > 4.9 | > 1.8 | SI (selectivity index), IC50 (L-02)/IC50 (A549) [1]: > 1.5; SI (selectivity index), IC50 (L-02)/IC50 (HeLa) [5]: > 1.3; SI (selectivity index), IC50 (L-02)/IC50 (HepG-2) [6]: > 4.8; SI (selectivity index), IC50 (L-02)/IC50 (MGC-803) [8]: > 2.8; SI (selectivity index), IC50 (MCF-10A)/IC50 (MCF-7) [9]: > 1.8; SI (selectivity index), IC50 (L-02)/IC50 (SGC-7901) [12]: > 1.7
4 | N#C/C(=C\c1ccc(Br)cc1)c1ccc(OC(F)(F)F)cc1 [Compound 1a2d] | > 100 | 19.6 ± 2.9 | > 100 | 25.4 ± 6.8 | 87.3 ± 4.1 | 24.3 ± 3.4 | > 100 | > 100 | > 100 | > 100 | 64.9 ± 1.5 | > 100 | 73.5 ± 17.3 | > 5.0 | > 3.9 | > 1.5 | SI (selectivity index), IC50 (L-02)/IC50 (HeLa) [5]: > 1.1; SI (selectivity index), IC50 (L-02)/IC50 (HepG-2) [6]: > 4.1; SI (selectivity index), IC50 (L-02)/IC50 (SU-DHL-10) [13]: > 1.3
5 | Cc1ccc(/C=C(\C#N)c2ccc(OC(F)(F)F)cc2)cc1 [Compound 1a2e] | > 100 | 30.8 ± 7.9 | > 100 | > 100 | > 100 | > 100 | > 100 | > 100 | > 100 | > 100 | > 100 | > 100 | > 100 | > 3.2 | – | – | –
6 | CCc1ccc(/C=C(\C#N)c2ccc(OC(F)(F)F)cc2)cc1 [Compound 1a2f] | > 100 | 14.6 ± 5.9 | > 100 | 43.5 ± 3.8 | > 100 | > 100 | > 100 | 56.7 ± 11 | 59.9 ± 2.3 | > 100 | 42.7 ± 3.4 | 77.9 ± 12.6 | 15.1 ± 11.6 | > 6.8 | > 2.2 | > 2.3 | SI (selectivity index), IC50 (L-02)/IC50 (MGC-803) [8]: > 1.7; SI (selectivity index), IC50 (MCF-10A)/IC50 (MCF-7) [9]: > 1.6; SI (selectivity index), IC50 (L-02)/IC50 (SGC-7901) [12]: > 1.2; SI (selectivity index), IC50 (L-02)/IC50 (SU-DHL-10) [13]: > 6.6
7 | CC(C)c1ccc(/C=C(\C#N)c2ccc(OC(F)(F)F)cc2)cc1 [Compound 1a2g] | 71.6 ± 24.7 | 8.7 ± 2.1 | > 100 | 57.4 ± 7.8 | > 100 | > 100 | > 100 | > 100 | > 100 | > 100 | 66.6 ± 13.3 | 89.9 ± 5.6 | 27.3 ± 5.3 | > 11.4 | > 1.7 | > 1.5 | SI (selectivity index), IC50 (L-02)/IC50 (A549) [1]: > 1.3; SI (selectivity index), IC50 (L-02)/IC50 (SGC-7901) [12]: > 1.1; SI (selectivity index), IC50 (L-02)/IC50 (SU-DHL-10) [13]: > 3.6
8 | CN(C)c1ccc(/C=C(\C#N)c2ccc(OC(F)(F)F)cc2)cc1 [Compound 1a2h] | > 100 | 69.6 ± 15.7 | 24.1 ± 2.8 | 8.7 ± 1.7 | > 100 | > 100 | > 100 | 16.8 ± 0.7 | > 100 | > 100 | 67.4 ± 31.7 | 19.7 ± 1.5 | > 100 | > 1.4 | > 11.4 | > 1.4 | SI (selectivity index), IC50 (L-02)/IC50 (BEL-7402) [3]: > 4.1; SI (selectivity index), IC50 (L-02)/IC50 (MGC-803) [8]: > 5.9; SI (selectivity index), IC50 (L-02)/IC50 (SGC-7901) [12]: > 5.0
9 | CCN(CC)c1ccc(/C=C(\C#N)c2ccc(OC(F)(F)F)cc2)cc1 [Compound 1a2i] | > 100 | > 100 | > 100 | > 100 | > 100 | > 100 | > 100 | > 100 | > 100 | > 100 | 45.1 ± 15.6 | > 100 | > 100 | – | – | > 2.2 | –
10 | COc1ccc(/C=C(\C#N)c2ccc(OC(F)(F)F)cc2)cc1 [Compound 1a2j] | > 100 | 21.1 ± 5.2 | > 100 | 42.5 ± 12.3 | > 100 | 72.6 ± 25.3 | > 100 | > 100 | > 100 | 94.1 ± 3.5 | > 100 | > 100 | > 100 | > 4.7 | > 2.3 | – | SI (selectivity index), IC50 (L-02)/IC50 (HepG-2) [6]: > 1.3
11 | COc1cccc(/C=C(\C#N)c2ccc(OC(F)(F)F)cc2)c1 [Compound 1a2k] | > 100 | > 100 | > 100 | > 100 | > 100 | > 100 | > 100 | > 100 | > 100 | > 100 | > 100 | > 100 | > 100 | – | – | – | –
12 | COc1cc(/C=C(\C#N)c2ccc(OC(F)(F)F)cc2)cc(OC)c1OC [Compound 1a2l] | > 100 | > 100 | > 100 | > 100 | > 100 | > 100 | > 100 | > 100 | > 100 | > 100 | > 100 | > 100 | > 100 | – | – | – | –
13 | CCCOc1ccc(/C=C(\C#N)c2ccc(OC(F)(F)F)cc2)cc1 [Compound 1a2m] | > 100 | 87.2 ± 5.9 | > 100 | > 100 | > 100 | > 100 | > 100 | > 100 | > 100 | > 100 | > 100 | > 100 | > 100 | > 1.4 | – | – | –
14 | CCCCOc1ccc(/C=C(\C#N)c2ccc(OC(F)(F)F)cc2)cc1 [Compound 1a2n] | > 100 | > 100 | > 100 | > 100 | > 100 | > 100 | > 100 | > 100 | > 100 | > 100 | > 100 | > 100 | > 100 | – | – | – | –
15 | CCCCCOc1ccc(/C=C(\C#N)c2ccc(OC(F)(F)F)cc2)cc1 [Compound 1a2o] | > 100 | > 100 | > 100 | > 100 | > 100 | > 100 | > 100 | > 100 | > 100 | > 100 | > 100 | > 100 | > 100 | – | – | – | –
16 | CCCCCCOc1ccc(/C=C(\C#N)c2ccc(OC(F)(F)F)cc2)cc1 [Compound 1a2p] | > 100 | > 100 | > 100 | > 100 | > 100 | > 100 | > 100 | > 100 | > 100 | > 100 | > 100 | > 100 | > 100 | – | – | – | –

From article PMC11071649, “Synthesis and Selective Anticancer Activity Evaluation of 2-phenylacrylonitrile Derivatives as Tubulin Inhibitors” (Current Medicinal Chemistry, 2024)
